Measurements taken from US20160331754A1, “THERAPIES FOR TREATING CANCERS” (GILEAD SCIENCES, INC., priority 2014, published 2016).
“And” between values parts separate entries of the source, which are not always exact repeats. Equal values may be shown once.

Columns and labels:
p-AKT Ser473 [1] = test: Western blot, TPO-activated AKT phosphorylation in BaF3/MPL cells; type: cell-based; details: then TPO 50 ng/mL 10 min
Description: (§1) In addition, Compound B was examined for the effects on the PI3K signaling pathway by determining the levels of AKT and S6 phosphorylation with or without TPO activation. Two cell lines, BaF3/MPL and UT-7/TPO sensitive or responsive to TPO activation were used. The cells were starved (i.e. growing on medium having less FBS) in […] FBS/RPMI for two hours before treated with 0.1, 1.0, or 2.0 μM of Compound B or vehicle (0.1% DMSO in RPMI) for 2 hours at 37° C. To examine the TPO-activated phosphorylation, the cells were then treated or activated with 50 ng/mL of human recombinant TPO (Peprotech) for 10 minutes at 37° C. The TPO activation or treatment may reflect the conditions in diseased cells as the PI3K pathway is activated by TPO in myelofibrosis. After treating with compound and/or TPO, the cells were collected, lysed by lysis buffer (Cell Signaling), separated by SDS-PAGE, and analyzed by the Western blot using antibodies specific to p-AKT Ser473 or pS6 Ser235/236 (Cell Signaling). The phosphorylation levels in treated cells were calculated and compared to those of untreated cells (i.e. vehicle as negative control).

pS6 Ser235/236 [2] = test: Western blot, TPO-activated S6 phosphorylation in BaF3/MPL cells; type: cell-based; details: then TPO
Description: as §1

p-AKT Ser473 [3] = test: Western blot, TPO-activated AKT phosphorylation in UT-7/TPO cells; type: cell-based; details: then TPO
Description: as §1

pS6 Ser235/236 [4] = test: Western blot, TPO-activated S6 phosphorylation in UT-7/TPO cells; type: cell-based; details: then TPO
Description: as §1

p-AKT Ser473 [5] = test: Flow cytometry, basal AKT phosphorylation in CD34+ progenitor cells from MF patients; type: cell-based, human; details: one line per patient, vehicle=100
Description: (§2) PBMCs were isolated from whole blood of myelofibrosis (MF) patients who had not received treatments (i.e. naïve patients) or received ruxolitinib (i.e. rux-treated patients). The cells were treated with 0.02, 0.2, or 2.0 μM of Compound B or vehicle (0.1% DMSO in 0.1% FBS/RPMI) for 2 hours at 37° C. The cells were then fixed, permeabilized, and stained for FACS analysis. Antibodies specific to p-AKT Ser473 and pS6RP Ser235/236 were used to detect AKT phosphorylation (p-AKT) and S6RP phosphorylation (p-S6RP) in CD34^+/CD3^−/CD14^−/CD19/CD66^− (BD Biosciences) gated cells using flow cytometry. The percentage of basal (i.e. untreated with TPO) AKT and S6RP phosphorylation were normalized to vehicle control. A two-tailed paired t-test (GraphPad Prism) was used to calculate p-values. Values of p<0.05 were considered significant.
(§3) Similar studies were conducted with PI3K inhibitors Compounds C and D. PBMC from MF patients had received ruxolitinib (rux) and MF patient had received Compound A. The cells were treated with Compounds C or D at 0, 20.0, 200.0, 2000.0 nM for 2 hours at 37° C. Cells were treated with TPO for 10 minutes. The percentage of basal p-AKT and p-S6RP levels were normalized to vehicle control and those of TPO-treated were normalized to TPO-treated vehicle control. The PI3Kδ inhibitors Compound C is referred by the chemical names of (S)-2-(1-((9H-purin-6-yl)amino)ethyl)-6-fluoro-3-phenylquinazolin-4(3H)-one.

pS6RP Ser235/236 [6] = test: Flow cytometry, basal S6RP phosphorylation in CD34+ progenitor cells from MF patients; type: cell-based, human; details: data not shown
Description: as §2, §3

pS6RP Ser235/236 [7] = test: Flow cytometry, TPO-activated S6RP phosphorylation in CD34+ progenitor cells from MF patients; type: cell-based, human; details: for p-S6RP (table title: percentage of Annexin-V positive cells): cells from Compound A-treated MF patients; for normalized percentage of TPO-activated S6RP phosphorylation (p-S6RP): TPO-treated vehicle=100
Description: as §2
Also, PBMC cells from naïve or ruxolitinib treated patients were isolated and treated with Compound B and with TPO as described above. The percentage of TPO-activated AKT and S6RP phosphorylation were normalized to those of TPO-treated vehicle (“no TPO” values in Table 4). […] Also, the inhibition to PI3K signaling was dose-dependent to Compound B.
as §3

autologous B cells = test: Whole blood (WB) autologous B-cell depletion assay; type: cell-based
Description: Further, whole blood (WB) autologous B-cell depletion and cell-death induction assays were conducted as described in Mossner et al., Blood 115:4393-402, 2010. For cell death assay: Ri-1 DLBCL cells were seeded at 15,000 cells/well in 96-well plates. Cells were preincubated with Compound B or DMSO for 1 hour before the addition of antibody. Plates were incubated at 37° C. in a humidified CO2 chamber for 3 days. Cells were washed once with PBS and treated with Accutase for 15 minutes before being stained with Guava Nexin® reagent and analyzed on the Guava EasyCyte flow cytometer (Merck Millipore).
The percentage of deplete autologous B cells in a whole blood assay may represent the antibody potency.

[8] = system: NK-cell expression of CD107a and CD16; test: Antibody potency and NK-cell expression of CD107a and CD16; type: cell-based; details: data not shown
[9] = Plasma concentration in patient at clinical dose; type: in vivo, human; details: clinical dose 150 mg, twice a day

Structure (SMILES): CC[C@H](Nc1ncnc2[nH]cnc12)c1nc2cccc(F)c2c(=O)n1-c1ccccc1 [Compound B, (S)-2-(1-((9H-purin-6-yl)amino)propyl)-5-fluoro-3-phenylquinazolin-4(3H)-one]
- reduced p-AKT levels vs vehicle (p-AKT Ser473 [1]; 0.1 μM 2 h): 51%
- reduced p-AKT levels vs vehicle (p-AKT Ser473 [1]; 1.0 μM 2 h): 64%
- reduced p-AKT levels vs vehicle (p-AKT Ser473 [1]; 2.0 μM 2 h): 67%
- reduced p-S6 levels vs vehicle (pS6 Ser235/236 [2]; 0.1 μM 2 h): 24%
- reduced p-S6 levels vs vehicle (pS6 Ser235/236 [2]; 1.0 μM 2 h): 27%
- reduced p-S6 levels vs vehicle (pS6 Ser235/236 [2]; 2.0 μM 2 h): 41%
- reduced p-AKT levels vs vehicle (p-AKT Ser473 [3]; 0.1 μM 2 h): 11%
- reduced p-AKT levels vs vehicle (p-AKT Ser473 [3]; 1.0 μM 2 h): 44%
- reduced p-AKT levels vs vehicle (p-AKT Ser473 [3]; 2.0 μM 2 h): 55%
- reduced p-S6 levels vs vehicle (pS6 Ser235/236 [4]; 0.1 μM 2 h): 13%
- reduced p-S6 levels vs vehicle (pS6 Ser235/236 [4]; 1.0 μM 2 h): 28%
- reduced p-S6 levels vs vehicle (pS6 Ser235/236 [4]; 2.0 μM 2 h): 48%
- normalized percentage of basal AKT phosphorylation (p-AKT) (p-AKT Ser473 [5]; 0.02 μM 2 h, naïve MF patients): 99% and 102% and 83% and 88% and 84%
- normalized percentage of basal AKT phosphorylation (p-AKT) (p-AKT Ser473 [5]; 0.02 μM 2 h, rux-treated MF patients): 88% and 89% (2×) and 91% and 57% and 96% and 100%
- normalized percentage of basal AKT phosphorylation (p-AKT) (p-AKT Ser473 [5]; 0.2 μM 2 h, naïve MF patients): 64% and 127% and 75% and 76% and 81% and 72%
- normalized percentage of basal AKT phosphorylation (p-AKT) (p-AKT Ser473 [5]; 0.2 μM 2 h, rux-treated MF patients): 85% and 78% and 81% and 82% (2×) and 52% and 87%
- normalized percentage of basal AKT phosphorylation (p-AKT) (p-AKT Ser473 [5]; 2 μM 2 h, naïve MF patients): 55% and 96% and 66% (2×) and 70% and 47%
- normalized percentage of basal AKT phosphorylation (p-AKT) (p-AKT Ser473 [5]; 2 μM 2 h, rux-treated MF patients): 69% and 77% and 83% and 84% and 43% and 98% and 79%
- basal p-S6RP level vs untreated cells (pS6RP Ser235/236 [6]): reduced levels
- p-S6RP (table title: percentage of Annexin-V positive cells) (pS6RP Ser235/236 [7]; 0.02 μM): 61% and 69% and 64%
- normalized percentage of TPO-activated S6RP phosphorylation (p-S6RP) (pS6RP Ser235/236 [7]; 0.02 μM, naïve MF patients): 57% and 50% and 86%
- normalized percentage of TPO-activated S6RP phosphorylation (p-S6RP) (pS6RP Ser235/236 [7]; 0.02 μM, rux-treated MF patients): 55% and 79% and 60% and 59% and 53% and 62%
- p-S6RP (table title: percentage of Annexin-V positive cells) (pS6RP Ser235/236 [7]; 0.2 μM): 52% and 54% and 42%
- normalized percentage of TPO-activated S6RP phosphorylation (p-S6RP) (pS6RP Ser235/236 [7]; 0.2 μM, naïve MF patients): 48% and 42% and 69%
- normalized percentage of TPO-activated S6RP phosphorylation (p-S6RP) (pS6RP Ser235/236 [7]; 0.2 μM, rux-treated MF patients): 35% and 56% and 55% and 50% and 32% and 44%
- p-S6RP (table title: percentage of Annexin-V positive cells) (pS6RP Ser235/236 [7]; 2.0 μM): 30% and 34% and 25%
- Percentage of B-cell depletion WB (autologous B cells; Compound B alone 100 nM): 5% and −1% and −3%
- Percentage of B-cell depletion WB (autologous B cells; Compound B alone 760 nM): −1% and −4%
- Percentage of B-cell depletion WB (autologous B cells; Compound B alone 4200 nM): 0% and 1% and 5%
- reduction of the potency of both anti-CD20 antibodies ([8]; Compound B 256 nM with obinutuzumab or rituximab 0.01-1000 ng/mL): 0 to 15%
- NK-cell degranulation, surface expression of CD107a ([8]; in 2 of 3 samples): inhibited NK-cell degranulation
- maximal average plasma concentration (Cmax), adjusted for protein binding [9]: 256 nM
